The results in this text go back to patent publication US20250092014A1, “COMPOUNDS AND METHODS OF ACTIVATING LIPOPROTEIN LIPASE” (Metrea Biosciences, Inc., priority 2021, published 2025).

A value given as a limit tells only on which side of the number the result lay.

The target of the assay is T1, LPL:sGPIHBP1 complex (Homo sapiens, UniProt P06858).
T1 sequence (P06858 28-475): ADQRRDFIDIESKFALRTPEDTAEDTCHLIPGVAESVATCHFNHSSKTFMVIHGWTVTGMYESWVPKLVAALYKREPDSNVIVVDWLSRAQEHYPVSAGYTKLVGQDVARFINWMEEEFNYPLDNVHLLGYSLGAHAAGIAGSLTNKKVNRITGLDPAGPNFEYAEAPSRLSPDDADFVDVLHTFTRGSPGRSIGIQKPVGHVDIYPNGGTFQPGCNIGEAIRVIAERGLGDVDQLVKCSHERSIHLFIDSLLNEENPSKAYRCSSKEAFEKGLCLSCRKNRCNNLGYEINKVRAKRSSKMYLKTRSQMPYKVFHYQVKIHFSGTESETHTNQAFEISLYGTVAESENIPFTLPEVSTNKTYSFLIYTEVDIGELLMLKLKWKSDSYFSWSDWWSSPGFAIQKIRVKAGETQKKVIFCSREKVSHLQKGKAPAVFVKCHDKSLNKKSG
T1 sequence (Q8IV16 21-151 partner limits assumed): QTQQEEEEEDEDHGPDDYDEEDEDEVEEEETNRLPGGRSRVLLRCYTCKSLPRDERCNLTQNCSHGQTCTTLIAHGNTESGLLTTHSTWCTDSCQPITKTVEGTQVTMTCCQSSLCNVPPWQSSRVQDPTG
Nature of the assay: RB assay (LPL:sGPIHBP1 pre-incubated with ANGPTL4, RB substrate). In kind it is biochemical. The following applies: read-out: RB qAC50. How it is done:
The assay was performed in black 1536-well plates using purified proteins. To identify compounds that stimulate LPL activity either by directly activating LPL or by inhibiting the antagonist ANGPTL4, the LPL:sGPIHBP1 complex was pre-incubated with ANGPTL4 to decrease LPL activity by 80%. After a 60 min pre-incubation, the reaction was started by adding the RB substrate. 30 min after RB addition, the enzymatic reaction was stopped using SDS. Fluorescence intensity was measured 2 h after stopping the reaction.
20 or 40 nl of compound solution in 100% DMSO were placed in test plate. Then was added LPL:sGPIHBP1 to all wells (diluted in assay buffer to 5 nM; 2 μl/well). This was followed by an addition of ANGPTL4 to compounds and neutral controls (diluted in assay buffer to 20 nM; 1 μl/well). A buffer solution was added to the stimulator control (1 μl/well). The plates were then centrifuged and pre-incubated for 60 min at RT. The reaction was started by adding substrate to all wells (diluted in assay buffer to 40 μM, 1 μl/well). The plated were centrifuged (800 rpm for 1 min) and incubated 30 min at RT (=reaction time). The reaction was stopped by adding SDS to all wells (diluted in water to 2.5%, 2 μl/well); incubated 2 h at RT. The fluorescence intensity (ex 540 nm/em 590 nm) was measured on a Pherastar (BMG) using 5 flashes.
Consider `O=C(O)Cc1cc(F)ccc1NC(=O)c1ccc(N2CCCCC2)c(NC(=O)c2nn(CC(F)(F)F)c3ccncc23)c1` [Compound 107, 2-(5-fluoro-2-(4-(piperidin-1-yl)-3-(1-(2,2,2-trifluoroethyl)-1H-pyrazolo[4,3-c]pyridine-3-carboxamido)benzamido)phenyl)acetic acid], for which the EC50 is more than 7.1 µM.

Regarding `O=C(O)Cc1cc(F)ccc1NC(=O)c1ccc(N2CCCCC2)c(NC(=O)c2cn3ccccc3n2)c1` [Compound 109, 2-(5-fluoro-2-(3-(imidazo[1,2-a]pyridine-2-carboxamido)-4-(piperidin-1-yl)benzamido)phenyl)acetic acid], the EC50 is more than 25 µM.

`Cc1nc(C(=O)Nc2cc(C(=O)Nc3ccc(F)cc3CC(=O)O)ccc2N2CCCCC2)n2ccccc12` [Compound 110, 2-(5-fluoro-2-(3-(1-methylimidazo[1,5-a]pyridine-3-carboxamido)-4-(piperidin-1-yl)benzamido)phenyl)acetic acid]: the EC50 was more than 7.1 µM. Under `O=C(O)Cc1cc(F)ccc1NC(=O)c1ccc(N2CCCCC2)c(NC(=O)c2nn(CC(F)(F)F)c3cccnc23)c1` [Compound 111, 2-(5-fluoro-2-(4-(piperidin-1-yl)-3-(1-(2,2,2-trifluoroethyl)-1H-pyrazolo[4,3-b]pyridine-3-carboxamido)benzamido)phenyl)acetic acid] stands 23 µM; under `O=C(O)Cc1cc(F)ccc1NC(=O)c1ccc(N2CCCCC2)c(NC(=O)c2nn(CC(F)(F)F)c3cnccc23)c1` [Compound 112, 2-(5-fluoro-2-(4-(piperidin-1-yl)-3-(1-(2,2,2-trifluoroethyl)-1H-pyrazolo[3,4-c]pyridine-3-carboxamido)benzamido)phenyl)acetic acid], 6.4 µM; under `O=C(O)Cc1cc(F)ccc1NC(=O)c1ccc(N2CCCCC2)c(NC(=O)c2nn(CC(F)(F)F)c3ncccc23)c1` [Compound 113, 2-(5-fluoro-2-(4-(piperidin-1-yl)-3-(1-(2,2,2-trifluoroethyl)-1H-pyrazolo[3,4-b]pyridine-3-carboxamido)benzamido)phenyl)acetic acid], 9 µM. The same measure for `O=C(O)Cc1cc(F)ccc1NC(=O)c1ccc(N2CCCCC2)c(NC(=O)c2nn(CC(F)(F)F)cc2-c2ccccc2)c1` [Compound 115, 2-(5-fluoro-2-(3-(4-phenyl-1-(2,2,2-trifluoroethyl)-1H-pyrazole-3-carboxamido)-4-(piperidin-1-yl)benzamido)phenyl)acetic acid]: more than 7.1 µM. Under `O=C(O)Cc1cc(F)ccc1NC(=O)c1ccc(N2CCCCC2)c(NC(=O)c2cc(-c3ccccc3)n(CC(F)(F)F)n2)c1` [Compound 116, 2-(5-fluoro-2-(3-(5-phenyl-1-(2,2,2-trifluoroethyl)-1H-pyrazole-3-carboxamido)-4-(piperidin-1-yl)benzamido)phenyl)acetic acid] stands 23 µM; under `O=C(O)Cc1cc(F)ccc1NC(=O)c1ccc(N2CCCCC2)c(NC(=O)c2nn(CC(F)(F)F)cc2C2CC2)c1` [Compound 117, 2-(2-(3-(4-cyclopropyl-1-(2,2,2-trifluoroethyl)-1H-pyrazole-3-carboxamido)-4-(piperidin-1-yl)benzamido)-5-fluorophenyl)acetic acid], more than 25 µM; under `O=C(O)Cc1cc(F)ccc1NC(=O)c1ccc(N2CCCCC2)c(NC(=O)c2nn(CC3CCOC3)c3ccccc23)c1` (centres unmarked) [Compound 118, 2-(5-fluoro-2-(4-(piperidin-1-yl)-3-(1-((tetrahydrofuran-3-yl)methyl)-1H-indazole-3-carboxamido)benzamido)phenyl)acetic acid], more than 7.1 µM. As for `O=C(O)Cc1cc(F)ccc1NC(=O)c1ccc(N2CCCCC2)c(NC(=O)c2nn(CC3CCCO3)c3ccccc23)c1` (centres unmarked) [Compound 119, 2-(5-fluoro-2-(4-(piperidin-1-yl)-3-(1-((tetrahydrofuran-2-yl)methyl)-1H-indazole-3-carboxamido)benzamido)phenyl)acetic acid], the EC50 came out at 6.6 µM. The same measure for `O=C(O)Cc1cc(F)ccc1NC(=O)c1ccc(N2CCCCC2)c(NC(=O)c2nn(CCC(F)(F)F)c3ccccc23)c1` [Compound 121, 2-(5-fluoro-2-(4-(piperidin-1-yl)-3-(1-(3,3,3-trifluoropropyl)-1H-indazole-3-carboxamido)benzamido)phenyl)acetic acid]: 4.2 µM. The same measure for `C#CCn1nc(C(=O)Nc2cc(C(=O)Nc3ccc(F)cc3CC(=O)O)ccc2N2CCCCC2)c2ccccc21` [Compound 122, 2-(5-fluoro-2-(4-(piperidin-1-yl)-3-(1-(prop-2-yn-1-yl)-1H-indazole-3-carboxamido)benzamido)phenyl)acetic acid]: 3.8 µM. The same measure for `CC#CCn1nc(C(=O)Nc2cc(C(=O)Nc3ccc(F)cc3CC(=O)O)ccc2N2CCCCC2)c2ccccc21` [Compound 123, 2-(2-(3-(1-(but-2-yn-1-yl)-1H-indazole-3-carboxamido)-4-(piperidin-1-yl)benzamido)-5-fluorophenyl)acetic acid]: 3.1 µM; for `Cc1cc(Cn2nc(C(=O)Nc3cc(C(=O)Nc4ccc(F)cc4CC(=O)O)ccc3N3CCCCC3)c3ccccc32)no1` [Compound 124, 2-(5-fluoro-2-(3-(1-((5-methylisoxazol-3-yl)methyl)-1H-indazole-3-carboxamido)-4-(piperidin-1-yl)benzamido)phenyl)acetic acid]: 4.7 µM. Consider `N#CC1(Cn2nc(C(=O)Nc3cc(C(=O)Nc4ccc(F)cc4CC(=O)O)ccc3N3CCCCC3)c3ccccc32)CC1` [Compound 127, 2-(2-(3-(1-((1-cyanocyclopropyl)methyl)-1H-indazole-3-carboxamido)-4-(piperidin-1-yl)benzamido)-5-fluorophenyl)acetic acid], for which the EC50 came out at 4.3 µM. Under `O=C(O)Cc1cc(F)ccc1NC(=O)c1ccc(N2CCCCC2)c(NC(=O)c2cn(CC(F)(F)F)c3ccccc23)c1` [Compound 128, 2-(5-fluoro-2-(4-(piperidin-1-yl)-3-(1-(2,2,2-trifluoroethyl)-1H-indole-3-carboxamido)benzamido)phenyl)acetic acid] stands 0.66 µM; under `Cc1c(C(=O)Nc2cc(C(=O)Nc3ccc(F)cc3CC(=O)O)ccc2N2CCCCC2)c2ccccc2n1CC(F)(F)F` [Compound 130, 2-(5-fluoro-2-(3-(2-methyl-1-(2,2,2-trifluoroethyl)-1H-indole-3-carboxamido)-4-(piperidin-1-yl)benzamido)phenyl)acetic acid], more than 25 µM.

With `O=C(O)Cc1cc(F)ccc1NC(=O)c1ccc(N2CCCCC2)c(NC(=O)c2nn(CC3CCCOC3)c3ccccc23)c1` (centres unmarked) [Compound 133, 2-(5-fluoro-2-(4-(piperidin-1-yl)-3-(1-((tetrahydro-2H-pyran-3-yl)methyl)-1H-indazole-3-carboxamido)benzamido)phenyl)acetic acid], the EC50 was determined as 4.2 µM. Under `O=C(O)Cc1cc(F)ccc1NC(=O)c1ccc(N2CCCCC2)c(NC(=O)c2cc(-c3ccccc3)nn2CC(F)(F)F)c1` [Compound 134, 2-(5-fluoro-2-(3-(3-phenyl-1-(2,2,2-trifluoroethyl)-1H-pyrazole-5-carboxamido)-4-(piperidin-1-yl)benzamido)phenyl)acetic acid] stands 4.4 µM.
